# Source: patent US20260109714A1, “PYRIMIDINE-FUSED RING COMPOUND, AND PREPARATION METHOD THEREFOR AND USE THEREOF” (GENFLEET THERAPEUTICS (SHANGHAI) INC., priority 2022, published 2026)
# How the values were obtained:
# AGS p-ERK = test: Cell assay for p-ERK (HTRF, Advance ERK phospho-T202/Y204 kit); format: cell-based, human; settings: AGS cells (KRAS G12D), 3 hrs with compound, inhibition of p-ERK level
# Protocol: AGS was purchased from ATCC, Article No.: CRL-1739; F12K was purchased from Gibco, Article No.: 21127-022; FBS was purchased from Gibco, Article No.: 10099-141C; the trypsin (containing EDTA) was purchased from Gibco, Article No.: 25200-072; DMSO was purchased from VWRAMRESCO, Article No.: 0231-500ML; the 96-well cell culture plate was purchased from Corning, Article No.: 3599; the white-bottom opaque 96-well plate was purchased from Cisbio, Article No.: 66PL96025; Advance ERK phospho-T202/Y204 kit was purchased from Cisbio, Article No.: 64AERPEH; the cell counter was purchased from CHEMOMETEC, model: NC-200; the microplate reader was purchased from PerkinElmer, model: Envison.
# AGS, an endogenous human gastric adenocarcinoma cell line with KRAS^G12D mutation, was cultured in F12K+10% FBS medium. On the first day of the experiment, cells in logarithmic growth period were digested with trypsin (containing EDTA), collected and counted, and about 20,000 cells/well were inoculated in a 96-well cell culture plate and cultured overnight in an incubator with 5% CO2. 1000× compound stock solutions with gradient concentrations of 3.16 times were prepared with DMSO, and 200-fold diluted to 5× compound stock solutions with the above culture medium. The 5× compound stock solution was added to each cell culture well on the second day after cell inoculation, to give a final concentration of 1× and DMSO content of 0.1%. DMSO was used as experimental control. After adding the compound, the cells were continuously cultured for 3 hrs. Then, the culture medium in the well was removed, and 50 μl/well of cell lysis buffer (from Advanced ERK phospho-T202/Y204 kit, the same hereinafter) was added, and mixed uniformly. The cells were cultured for 30 min. Then 16 μl of the mixture was transferred to a white-bottom opaque 96-well plate, and 16 μl of the cell lysis buffer was added to an additional well and used as a blank. After that, 4 μl of p-ERK HTRF antibody mixed solution (from Advanced ERK Phos Pho-T202/Y204 Kit) was added to each well. After incubation for 4 hrs, the fluorescence value (RLU) of HTRF was read on a microplate reader. The inhibition rate of the compound on p-ERK level was calculated by the formula IR (%)=(RLU of control−RLU of compound)/(RLU of control−RLU of blank)×100%. The compound concentration and the corresponding inhibition rate on p-ERK level in the cells were fitted by using Prism 8 four-parameter method, and the IC50 value was calculated.
# [1] = system: AsPC-1 human pancreatic cancer cell with KRAS G12D mutation; test: Cell proliferation inhibition experiment, 3D CellTiter-Glo, AsPC-1; format: cell-based; settings: AsPC-1 cells, 3D spheroid, 5 days
# Text: (§1) AsPC-1 was purchased from ATCC, Article No.: CRL-1682; AGS was purchased from ATCC, Article No.: CRL-1739; RPMI1640 was purchased from Gibco, Article No.: 11875-093 2235123; F12K was purchased from Gibco, Article No.: 21127-022; FBS was purchased from Gibco, Article No.: 10099-141C; the trypsin (containing EDTA) was purchased from Gibco, Article No.: 25200-072; CellTiter Glo-3D was purchased from Progema, Article No.: G9683; the 384-well spheroid plate was purchased from Corning, Article No.: 3830; the white-bottom opaque 384-well plate was purchased from Corning, Article No.: 3570; the cell counter was purchased from CHEMOMETEC, model: NC-200; the microplate reader was purchased from PerkinElmer, model: Envison;
# (§2) AsPC-1, an endogenous human pancreatic cancer cell AsPC-1 with KRAS^G12D mutation, was cultured in RPMI-1640 medium containing 10% FBS. AGS, a human gastric cancer cell line with KRAS^G12D mutation, was cultured in F-12K medium containing 10% FBS. Cells in logarithmic growth period were digested with trypsin (containing EDTA), collected and counted. 800 AsPC-1 cells/well or 400 […] were inoculated in a 384-well spheroid plate, and cultured overnight in an incubator with 5% CO2 to establish a 3D cell model. 1000× compound stock solutions with gradient concentrations of 3.16 times were prepared with DMSO, and 100-fold diluted to 10× compound stock solutions with the culture medium. The 10× compound stock solution was added to each cell culture well on the second day after cell inoculation, to give a final concentration of 1× and DMSO content of 0.1%. DMSO was used as the control, and the culture medium was used as the blank. After the compound was added, the cells were cultured for 5 days. 30 μl CellTiter-Glo working solution was added to each well, and mixed uniformly. The cells were incubated for 30 min, and allowed to stand at room temperature for 30 min. 40 μl of the mixture was transferred to a white-bottom opaque 384-well plate, and the luminescence was read on a microplate reader. The inhibition rate on cell proliferation was calculated by a formula: IR (%)=(RLU of control−RLU of compound)/(RLU of control−RLU of blank)×100%. The gradient concentrations of the compound and the corresponding inhibition rates were fitted by using XLFit four-parameter method, and the IC50 value was calculated. […] The results of some exemplary compounds are shown in Table 2 below (—means not tested).
# [2] = system: AGS human gastric cancer cell line with KRAS G12D mutation; test: Cell proliferation inhibition experiment, 3D CellTiter-Glo, AGS; format: cell-based; settings: AGS cells, 3D spheroid, 5 days
# Text: as §1, §2
IC50 (AGS p-ERK) [µM],IC50 [1] [µM],IC50 [2] [µM],Compound,IC50 (AGS p-ERK; Homo sapiens) [µM],"IC50 ([1]; Homo sapiens, ASPC1, 120 h) [µM]","IC50 ([2]; Homo sapiens, 120 h) [µM]"
0.0111,0.0519,0.0268,"C#Cc1cccc2cccc(-c3nc4c5c(nc(OC[C@@]67CCCN6CCC7=C)nc5c3F)N3C[C@H]5CC[C@H](N5)[C@H]3[C@H](C)O4)c12 (single isomer, unassigned) [Z702]",,,
,,,"C#Cc1cccc2cc(N)cc(-c3nc4c5c(nc(OC[C@@]67CCCN6CCC7=C(F)F)nc5c3F)N3C[C@H]5CC[C@H](N5)[C@H]3[C@H](C)O4)c12 (single isomer, unassigned) [Z960]",0.00025,0.00158,0.00396
0.0502,0.202,0.0733,"C#Cc1cccc2cccc(-c3nc4c5c(nc(OC[C@@]67CCCN6C[C@H](F)C7)nc5c3F)N3C[C@H]5CC[C@H](N5)[C@H]3C(CC)O4)c12 (stereo partly drawn) [Z387, (5S,5aS,6S,9R)-5-ethyl-2-(8-alkynylnaphthalen-1-yl)-1-fluoro-12-(((2R,7aS)-2-fluorotetrahydro-1H-pyrrolizin-7a(5H)-yl)methoxy)-5a,6,7,8,9,10-hexahydro-5H-4-oxy-3,10a,11,13,14-pentaaza-6,9-methanonaphtho[1,8-ab]heptene]",,,
,,,"C=C1CN2CCCC2(COc2nc3c4c(nc(-c5cccc6cccc(Cl)c56)c(F)c4n2)OC(CC)[C@@H]2[C@@H]4CC[C@H](CN32)N4)C1 (stereo partly drawn) [Z596, (5S,5aS,6S,9R)-2-(8-chloronaphthalen-1-yl)-5-ethyl-1-fluoro-12-((2-methylenetetrahydro-1H-pyrrolizin-7a(5H)-yl)methoxy)-5a,6,7,8,9,10-hexahydro-5H-4-oxy-3,10a,11,13,14-pentaaza-6,9-methanonaphtho[1,8-ab]heptene]",,0.411,0.268
0.00779,0.032,0.0197,"C#Cc1c(F)ccc2cccc(-c3nc4c5c(nc(OC[C@@]67CCCN6CCC7=C)nc5c3F)N3C[C@H]5CC[C@H](N5)[C@H]3[C@H](C)O4)c12 [Z638, (5S,5aS,6S,9R)-2-(8-ethynyl-7-fluoronaphthalen-1-yl)-1-fluoro-5-methyl-12-(((S)-1-methylenetetrahydro-1H-pyrrolizin-7a(5H)-yl)methoxy)-5a,6,7,8,9,10-hexahydro-5H-4-oxa-3,10a,11,13,14-pentaaza-6,9-methanonaphtho[1,8-ab]heptene]",,,
0.0334,0.0937,0.113,"C#Cc1c(F)ccc2cccc(-c3nc4c5c(nc(OC[C@]67CCCN6CCC7=C)nc5c3F)N3C[C@H]5CC[C@H](N5)[C@H]3[C@H](C)O4)c12 [Z639, (5S,5aS,6S,9R)-2-(8-ethynyl-7-fluoronaphthalen-1-yl)-1-fluoro-5-methyl-12-(((R)-1-methylenetetrahydro-1H-pyrrolizin-7a(5H)-yl)methoxy)-5a,6,7,8,9,10-hexahydro-5H-4-oxa-3,10a,11,13,14-pentaaza-6,9-methanonaphtho[1,8-ab]heptene]",,,
0.00661,0.0174,0.0193,"C#Cc1c(F)ccc2cccc(-c3nc4c5c(nc(OC[C@]67C[C@@H](F)CN6CCC7=C)nc5c3F)N3C[C@H]5CC[C@H](N5)[C@H]3[C@H](C)O4)c12 [Z689, (5S,5aS,6S,9R)-2-(8-ethynyl-7-fluoronaphthalen-1-yl)-1-fluoro-12-(((6R,7aR)-6-fluoro-1-methylenetetrahydro-1H-pyrrolizin-7a(5H)-yl)methoxy)-5-methyl-5a,6,7,8,9,10-hexahydro-5H-4-oxa-3,10a,11,13,14-pentaaza-6,9-methanonaphtho[1,8-ab]heptene]",,,
,,,"C#Cc1c(F)ccc2cccc(-c3nc4c5c(nc(OC[C@]67CCCN6CCC7=C)nc5c3F)N3C[C@H]5CC[C@H](N5)[C@H]3[C@@H](C(F)F)O4)c12 [Z736, (5S,5aS,6S,9R)-5-(difluoromethyl)-2-(8-ethynyl-7-fluoronaphthalen-1-yl)-1-fluoro-12-(((R)-1-methylenetetrahydro-1H-pyrrolizin-7a(5H)-yl)methoxy)-5a,6,7,8,9,10-hexahydro-5H-4-oxa-3,10a,11,13,14-pentaaza-6,9-methanonaphtho[1,8-ab]heptene]",,0.254,0.389
,,,"C#Cc1c(F)ccc2cccc(-c3nc4c5c(nc(OC[C@]67CCCN6CCC7=C)nc5c3F)N3C[C@H]5CC[C@H](N5)[C@H]3C(CF)O4)c12 (stereo partly drawn) [Z746, (5aS,6S,9R)-2-(8-ethynyl-7-fluoronaphthalen-1-yl)-1-fluoro-5-(fluoromethyl)-12-(((R)-1-methylenetetrahydro-1H-pyrrolizin-7a(5H)-yl)methoxy)-5a,6,7,8,9,10-hexahydro-5H-4-oxa-3,10a,11,13,14-pentaaza-6,9-methanonaphtho[1,8-ab]heptene]",0.0171,,
,,,C#Cc1cccc2cc(N)cc(-c3nc4c5c(nc(OCC67CCCN6CC(=C(F)F)C7)nc5c3F)N3C[C@H]5CC[C@H](N5)[C@H]3[C@H](C)O4)c12 (stereo partly drawn) [Z747],0.00037,,
,,,"[2H]C([2H])([2H])[C@@H]1Oc2nc(-c3cc(N)cc(Cl)c3C(F)(F)F)c(F)c3nc(OC[C@]45CCCN4CCC5=C(F)F)nc(c23)N2C[C@H]3CC[C@H](N3)[C@@H]12 [Z1072, 3-chloro-5-((5S,5aS,6S,9R)-12-(((R)-1-(difluoromethylene)tetrahydro-1H-pyrrolizin-7a(5H)-yl)methoxy)-1-fluoro-5-(methyl-d3)-5a,6,7,8,9,10-hexahydro-5H-4-oxo-3,10a,11,13,14-pentaaza-6,9-methanonaphtho[1,8-ab]hepten-2-yl)-4-(trifluoromethyl) aniline]",,0.00226,0.0005

Compound,IC50 (AGS p-ERK) [µM],IC50 [1] [µM],IC50 [2] [µM],IC50 (AGS p-ERK; Homo sapiens) [µM],"IC50 ([1]; Homo sapiens, ASPC1, 120 h) [µM]","IC50 ([2]; Homo sapiens, 120 h) [µM]"
"6-((5S,5aS,6S,9R)-12-(((R)-1-(difluoromethylene)tetrahydro-1H-pyrrolizin-7a(5H)-yl)methoxy)-1-fluoro-5-(methyl-d3)-5a,6,7,8,9,10-hexahydro-5H-4-oxa-3,10a,11,13,14-pentaaza-6,9-methanonaphtho[1,8-ab]hepten-2-yl)-4-methyl-5-(trifluoromethyl)pyridine-2-amine [Z1295]",0.0139,,,,,
"C#Cc1cccc2cc(N)c(F)c(-c3nc4c5c(nc(OCC6(CN7CCOCC7)CC6)nc5c3F)N3C[C@H]5CC[C@H](N5)[C@H]3[C@H](C)O4)c12 [Z707, 5-ethynyl-3-fluoro-4-((5S,5aS,6S,9R)-1-fluoro-5-methyl-12-((1-(morpholinemethyl)cyclopropyl)methoxy)-5a,6,7,8,9,10-hexahydro-5H-4-oxa-3,10a,11,13,14-pentaaza-6,9-methanonaphtho[1,8-ab]hepten-2-yl)naphthalen-2-amine]",0.00095,0.00524,0.00744,,,
